Measurements from patent US20220408731A1, “MODIFIED ANTIMICROBIAL PEPTIDES” (priority 2021, published 2022).
≈ marks a conversion by molar mass, not a printed value. Like-named read-outs stand apart in the source and are kept apart here. Square brackets hold non-standard residues; d marks the D form. Peptide text beside a SMILES is read from it. Dab = NCC[C@H](N)C(=O)O

Key:
C. albicans = assay: Peptide or protein/Fluconazole combination, MIC and FICI; settings: Candida albicans
C. glabrata = assay: as above; settings: Nakaseomyces glabratus
F. oxysporum = assay: Antifungal MIC assay in SFM; format: cell-based
P. capsici = assay: Antifungal MIC assay in SFM; format: cell-based
C. parapsilosis = assay: Antifungal MIC, CLSI M27/M38, half-strength potato dextrose broth; format: cell-based, Candida parapsilosis; settings: C. parapsilosis ATCC 22019; 24-72 hours
Experimental: (§1) Testing for antifungal activity used half-strength potato dextrose broth for peptides and RPMI for comparator antifungals fluconazole and voriconazole. CLSI M27 and M38 methodologies used for to measure MICs. Minimal Inhibitory Concentration (MIC) is the concentration of the compound, protein, or peptide at which there is no significant growth of the microorganism relative to the growth of the microorganism in growth medium lacking the compound, protein, or peptide.
(§2) […] The concentration range for peptides in potato dextrose broth was 0.06-2 mcg/ml, the concentration range for fluconazole was 0.125-64 mcg/ml, and the concentration range for voriconazole was 0.03-16 mcg/ml. MICs were determined at 24-72 hours.

Aspergillus fumigatus = assay: as above; format: cell-based
Experimental: as §1, §2

C. krusei = assay: as above; format: cell-based; settings: C. krusei ATCC 6258; 24-72 hours
Experimental: as §1, §2

Candida albicans = assay: as above; format: cell-based
Experimental: as §1, §2

Candida auris = assay: as above; format: cell-based
Experimental: as §1, §2

Fusarium (F. oxysporum) = assay: as above; format: cell-based
Experimental: as §1, §2

Fusarium (F. solani) = assay: as above; format: cell-based; settings: Fusarium F4 (F. solani)
Experimental: as §1, §2

P. variotii = assay: as above; format: cell-based; settings: P. variotii MYA-363; 24-72 hours
Experimental: as §1, §2

Coccidioides sp. = format: cell-based

SMILES: OC(Cn1cncn1)(Cn1cncn1)c1ccc(F)cc1F [Fluconazole]
- MIC (C. albicans; read-out: MIC alone (μM)): 206 µM
- MIC (C. albicans; read-out: MIC alone μg/ml): 64 µg/mL
- MIC (C. glabrata; read-out: MIC alone (μM)): 206 µM
- MIC (C. glabrata; read-out: MIC alone μg/ml): 64 µg/mL

SMILES: C[C@@H](O)[C@H](NC(=O)[C@H](CS)NC(=O)[C@H](Cc1ccccc1)NC(=O)[C@H](CS)NC(=O)[C@H](CCCNC(=N)N)NC(=O)[C@H](CCCNC(=N)N)NC(=O)[C@H](CCCNC(=N)N)NC(=O)[C@H](Cc1ccccc1)NC(=O)CNC(=O)[C@H](CCCNC(=N)N)NC(=O)[C@H](CS)NC(=O)[C@H](CCCNC(=N)N)NC(=O)CNC(=O)CN)C(=O)N[C@H](C(=O)N[C@@H](Cc1c[nH]cn1)C(=O)N[C@@H](CS)C(N)=O)[C@@H](C)O [GMA4C_AC, reference compound] (H-GGRCRGFRRRCFCTTHC-NH2; N-terminus assumed)
- F. oxysporum MIC (F. oxysporum): 6 µM
- P. capsici MIC (P. capsici): 1.5 µM
- Antifungal activity in presence of 100 mM NaCl or 100 mM KCl (Botrytis cinerea): retain their antifungal activity
- B. cinerea MIC (Botrytis cinerea): 1.5 to 3.0 µM
- MIC (μM) Botrytis cinerea (Botrytis cinerea): 3 µM (≈ 6.05 µg/mL)
- MIC Values (μM) against B. cinerea (Botrytis cinerea): 3 µM (≈ 6.05 µg/mL)
- SFM + 2 mM CaCl2 MIC (Botrytis cinerea): >6 µM
- SFM + 100 mM KCl MIC (Botrytis cinerea): 6 µM
- SFM + 100 mM NaCl MIC (Botrytis cinerea): 3 µM
- SFM MIC (Botrytis cinerea): 3 µM
- F. graminearum MIC (Fusarium graminearum): 3 µM
- MIC (μM) Fusarium graminearum (Fusarium graminearum): 3 µM (≈ 6.05 µg/mL)
- MIC Values (μM) against F. graminearum (Fusarium graminearum): 6 µM (≈ 12.1 µg/mL)

SMILES: NCC[C@H](NC(=O)CNC(=O)[C@@H](N)Cc1ccccc1)C(=O)N[C@@H](CS)C(=O)N[C@@H](CCN)C(=O)NCC(=O)N[C@@H](Cc1ccccc1)C(=O)N[C@@H](CCN)C(=O)N[C@@H](CCN)C(=O)N[C@@H](CCN)C(=O)N[C@@H](CS)C(=O)N[C@@H](Cc1ccccc1)C(=O)N[C@@H](CS)C(=O)N[C@@H](Cc1c[nH]c2ccccc12)C(=O)N[C@@H](CCN)C(=O)N[C@@H](Cc1c[nH]c2ccccc12)C(=O)N[C@@H](CS)C(N)=O [GMA4C_V5A, FG(Dab)C(Dab)GF(Dab)(Dab)(Dab)CFCW(Dab)WC-NH2] (H-FG[Dab]C[Dab]GF[Dab][Dab][Dab]CFCW[Dab]WC-NH2; N-terminus assumed)
- MIC 100% (C. parapsilosis): 8 µg/mL (≈ 4.08 µM)
- MIC 100% (Aspergillus fumigatus; Aspergillus fumigatus AF293): 32 µg/mL (≈ 16.3 µM)
- MIC 100% (Aspergillus fumigatus; Aspergillus fumigatus DI15-106): >32 µg/mL
- MIC 100% (Aspergillus fumigatus; Aspergillus fumigatus DI15-116): >32 µg/mL
- MIC 100% (C. krusei): 8 µg/mL (≈ 4.08 µM)
- MIC 100% (Candida albicans; Candida albicans ATCC 90028): 16 µg/mL (≈ 8.17 µM)
- MIC 100% (Candida albicans; Candida albicans CA3): 8 µg/mL (≈ 4.08 µM)
- MIC 100% (Candida albicans; Candida albicans SC5314): 16 µg/mL (≈ 8.17 µM)
- MIC 100% (Candida auris; Candida auris DI17-46): 16 µg/mL (≈ 8.17 µM)
- MIC 100% (Candida auris; Candida auris DI17-47): 16 µg/mL (≈ 8.17 µM)
- MIC 100% (Candida auris; Candida auris DI17-48): 16 µg/mL (≈ 8.17 µM)
- MIC 100% (Fusarium (F. oxysporum); Fusarium F1 (F. oxysporum)): 8 µg/mL (≈ 4.08 µM)
- MIC 100% (Fusarium (F. oxysporum); Fusarium F2 (F. oxysporum)): 16 µg/mL (≈ 8.17 µM)
- MIC 100% (Fusarium (F. solani)): 8 µg/mL (≈ 4.08 µM)
- MIC 100% (P. variotii): 4 µg/mL (≈ 2.04 µM)
- MIC 100% (Coccidioides sp.; Coccidioides sp. Cocci1): 2 µg/mL (≈ 1.02 µM)
- MIC 100% (Coccidioides sp.; Coccidioides sp. Cocci2): 16 µg/mL (≈ 8.17 µM)
- MIC 100% (Coccidioides sp.; Coccidioides sp. DI17-143): 16 µg/mL (≈ 8.17 µM)
- MIC (μM) Botrytis cinerea (Botrytis cinerea): 6 µM (≈ 11.8 µg/mL)
- MIC Values (μM) against B. cinerea (Botrytis cinerea): 3 µM (≈ 5.88 µg/mL)
- SFM + 2 mM CaCl2 MIC (Botrytis cinerea): >6 µM
- SFM + 100 mM KCl MIC (Botrytis cinerea): >6 µM
- SFM + 100 mM NaCl MIC (Botrytis cinerea): 6 µM
- SFM MIC (Botrytis cinerea): 6 µM
